Laboratory results reported in patent US11655269B2, “Prodrug-type anticancer agent using cancer-specific enzymatic activity” (The University of Tokyo, priority 2018, dated 2023).

Experiments:
β-Gal = β-Gal (Escherichia coli, UniProt P00722); assay: Enzymatic reaction with purified β-galactosidase, LC-MS analysis of products; assay type: biochemical; conditions: 100 μM compound, 4 nM β-Gal, 37° C.; reaction product 2-hydroxybenzyl alcohol; FIG. 4
Description: (§1) Next, enzymatic reactions were carried out under the following conditions using the three compounds synthesized and purified enzymes.
(§2) Final compound concentration: 100 μM
(§3) Final enzyme concentration: 4 nM (β-Gal), 8.5 μg/mL (DPP-IV), 10 U/mL (GGT)
(§4) Reaction temperature: 37° C.
(1) Enzymatic Reaction Using β-Galactosidase
Instrument: ACQUITY UPLC (manufactured by Waters Corporation)
(§5) Column: Poroshell 120, 4.6×100 mm (manufactured by Agilent Technologies, Inc.)
(§6) Mobile phase A: water (0.01M ammonium formate)
(§7) Mobile phase B: 80% acetonitrile/water (0.01M ammonium formate)

HEK293 cells = assay: CCK-8 assay, cells with low β-Gal expression; assay type: cell-based, human; conditions: 50 μM, after 24 hours, FIG. 5
Description: (§8) Next, it was verified whether compounds 1-3 can change the cell viability by functioning as a prodrug when administered to cells with high and low enzyme expression. The efficacy studies were carried out by using a general colorimetric method called CCK-8 assay (method for quantifying the dehydrogenase activity inside living cells through reduction of colorless WST-8 to orange formazan) to quantify the number of living cells. The CCK-8 assay evaluation method is described below.
(§9) The B-galactosidase-activated prodrug was evaluated using HEK/lac Z cells (cells derived from human kidney cells, high β-Gal expression) and HEK293 cells (cells derived from human kidney cells, low β-Gal expression). The DPP-IV-activated prodrug was evaluated using H226 cells (human lung squamous cell carcinoma cells, high DPP-IV expression) and H460 cells (human non-small cell epithelial lung cancer cells, low DPP-IV expression). The GGT-activated prodrug was evaluated using SHIN3 cells (human ovarian cancer cells, high GGT expression) and H226 cells (human lung squamous cell carcinoma cells, low GGT expression).
(§10) Each type of cell was seeded in 96-well plates (cell density: 1.0×10^4/well) and incubated overnight. […] After 2.5 hours, the 450 nm absorbance was measured by a plate reader, and the number of viable cells was quantified.

HEK/lac Z cells = assay: CCK-8 assay, cells with high β-Gal expression; assay type: cell-based, human; conditions: FIG. 5
Description: as §8, §9, §10

[1] = test system: SHIN3 cells (high GGT expression) and H226 cells (low GGT expression); assay: CCK-8 assay, cells with high and low GGT expression; assay type: cell-based, human
Description: as §8, §9
Each type of cell was seeded in 96-well plates (cell density: 1.0×10^4/well) and incubated overnight. The medium was exchanged for fresh medium, and the synthesized derivatives were added (final concentration 1-50 μM, 0.5% DMSO, n=3). After culturing the cells for another 24 hours, a Cell Counting Kit-8 (10 μL/well, manufactured by […]) was added. After 2.5 hours, the 450 nm absorbance was measured by a plate reader, and the number of viable cells was quantified.
Next, benzyl-position leaving group-converted derivatives were subjected to the CCK-8 assay described above.

GGT = assay: Enzymatic reaction with purified GGT, LC-MS analysis of products; assay type: biochemical
Description: as §1, §2, §3, §4
(§11) (2) Enzymatic Reaction Using DPP-IV and GGT
(§12) Instrument: 1260 Infinity (manufactured by Agilent Technologies, Inc.)
as §5, §6, §7
Next, enzymatic reactions were carried out under the following conditions using the benzyl-position leaving group-converted derivatives synthesized and purified enzyme.
Final enzyme concentration: 10 U/mL (GGT)
Enzymatic reaction using GGT

SHIN3 cells = assay: Administration study in peritoneal dissemination model mice; assay type: in vivo; conditions: 5 mg/kg intraperitoneally each day from day 7, imaged day 21 with gGlu-HMRG, vs PBS; FIG. 17
Description: Peritoneal dissemination model mice were created by intraperitoneal administration of SHIN3 cells (cancer cell line derived from ovarian cancer, high GGT activity) suspended in PBS. From day seven after cell dissemination, 5 mg/kg of gGlu-FMA or PBS (control) was administered intraperitoneally each day. On day 21 after cell dissemination, gGlu-HMRG was administered intraperitoneally, and the mice were sacrificed ten minutes later. After laparotomy, fluorescence images were acquired by a Maestro in vivo imaging device (FIG. 16).

[2] = test system: cocultured SHIN3 cells and H226 cells; assay: Cell death observation under coculture conditions, time-lapse fluorescence imaging with EthD-1 (protocol 2); assay type: cell-based, human; conditions: coculture of high and low GGT expression cells, 24 hr time-lapse imaging; FIG. 9
[3] = test system: SHIN3 cells and H226 cells; assay: Cell death observation by fluorescence imaging over time with EthD-1 (protocol 1); assay type: cell-based, human; conditions: SHIN3 vs H226 cultured separately, imaging over 24 hr; FIG. 8
Description: Since changing the types of cells and standardizing the medium to RPMI-1640 made coculture possible, the aim then became to observe cell death under coculture conditions and to construct a quantitative method. It was decided to conduct these studies using compound 3 for GGT (gGlu-FMA) based on the results obtained thus far, and the possibility of visually observing cell death by observation of fluorescence using one type of cell was first explored as an initial study (FIG. 8).
Scan mode: xyzt, x=512, y=512, z=4, t=24. Scale bar: 50 μm.

[4] = test system: SHIN3 cells and H226 cells; assay: Efficacy evaluation by flow cytometry (protocol 3); assay type: cell-based, human; conditions: 25 μM, 24-hr incubation; compared with +100 μM GGsTop and 0.25% DMSO control; FIG. 10
Description: On the other hand, since it is impossible to quantitatively discuss the extent to which the survival rates of high-expression/low-expression cells have changed, the present inventors studied whether this could be evaluated using flow cytometry (FIG. 10).
(Top) 25 μM model compound, (middle) 25 μM model compound+100 μM GGsTop, (bottom) 0.25% DMSO control. Analysis was carried out after 24-hr incubation.

DPP-IV = DPP-IV (Homo sapiens, UniProt P27487); assay: Enzymatic reaction with purified DPP-IV, LC-MS analysis of products; assay type: biochemical; conditions: 100 μM compound, 8.5 μg/mL DPP-IV, 37° C.; reaction product 2-aminobenzyl alcohol; FIG. 4
Description: as §1, §2, §3, §4, §11, §12, §5, §6, §7

[5] = test system: H226 cells (high DPP-IV expression) and H460 cells (low DPP-IV expression); assay: CCK-8 assay, cells with high and low DPP-IV expression; assay type: cell-based, human; conditions: H226 (high DPP-IV) vs H460 (low DPP-IV), 1-50 μM, 24 hours; FIG. 6
Description: as §8, §9, §10

Sequence of β-Gal (P00722 2-1024): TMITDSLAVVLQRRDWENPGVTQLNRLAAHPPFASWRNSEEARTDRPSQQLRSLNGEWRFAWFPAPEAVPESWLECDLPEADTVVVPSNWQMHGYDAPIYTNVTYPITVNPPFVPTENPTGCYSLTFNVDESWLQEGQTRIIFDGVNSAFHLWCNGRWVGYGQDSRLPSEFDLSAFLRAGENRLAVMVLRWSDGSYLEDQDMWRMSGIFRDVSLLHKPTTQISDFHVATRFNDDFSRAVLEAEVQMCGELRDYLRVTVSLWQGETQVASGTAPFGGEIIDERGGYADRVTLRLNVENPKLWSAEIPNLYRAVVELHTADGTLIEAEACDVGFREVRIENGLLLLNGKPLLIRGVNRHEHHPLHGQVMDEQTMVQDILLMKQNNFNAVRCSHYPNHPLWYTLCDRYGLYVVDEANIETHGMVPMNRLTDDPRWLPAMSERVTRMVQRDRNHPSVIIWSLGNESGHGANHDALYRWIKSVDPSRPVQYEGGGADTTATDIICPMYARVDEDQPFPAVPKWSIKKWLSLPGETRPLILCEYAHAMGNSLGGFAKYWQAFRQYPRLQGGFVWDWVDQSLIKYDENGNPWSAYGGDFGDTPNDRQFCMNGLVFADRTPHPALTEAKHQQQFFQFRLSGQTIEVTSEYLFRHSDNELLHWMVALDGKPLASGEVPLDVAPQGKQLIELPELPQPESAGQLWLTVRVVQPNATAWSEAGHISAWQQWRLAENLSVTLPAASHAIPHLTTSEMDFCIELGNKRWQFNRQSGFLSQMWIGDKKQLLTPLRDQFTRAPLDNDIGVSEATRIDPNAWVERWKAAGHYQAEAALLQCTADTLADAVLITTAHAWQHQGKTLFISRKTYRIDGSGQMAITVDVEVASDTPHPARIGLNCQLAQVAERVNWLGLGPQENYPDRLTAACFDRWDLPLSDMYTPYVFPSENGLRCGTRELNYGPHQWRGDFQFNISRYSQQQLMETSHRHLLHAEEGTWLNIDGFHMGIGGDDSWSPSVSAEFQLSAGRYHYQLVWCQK
Sequence of DPP-IV (P27487 whole entry, species assumed): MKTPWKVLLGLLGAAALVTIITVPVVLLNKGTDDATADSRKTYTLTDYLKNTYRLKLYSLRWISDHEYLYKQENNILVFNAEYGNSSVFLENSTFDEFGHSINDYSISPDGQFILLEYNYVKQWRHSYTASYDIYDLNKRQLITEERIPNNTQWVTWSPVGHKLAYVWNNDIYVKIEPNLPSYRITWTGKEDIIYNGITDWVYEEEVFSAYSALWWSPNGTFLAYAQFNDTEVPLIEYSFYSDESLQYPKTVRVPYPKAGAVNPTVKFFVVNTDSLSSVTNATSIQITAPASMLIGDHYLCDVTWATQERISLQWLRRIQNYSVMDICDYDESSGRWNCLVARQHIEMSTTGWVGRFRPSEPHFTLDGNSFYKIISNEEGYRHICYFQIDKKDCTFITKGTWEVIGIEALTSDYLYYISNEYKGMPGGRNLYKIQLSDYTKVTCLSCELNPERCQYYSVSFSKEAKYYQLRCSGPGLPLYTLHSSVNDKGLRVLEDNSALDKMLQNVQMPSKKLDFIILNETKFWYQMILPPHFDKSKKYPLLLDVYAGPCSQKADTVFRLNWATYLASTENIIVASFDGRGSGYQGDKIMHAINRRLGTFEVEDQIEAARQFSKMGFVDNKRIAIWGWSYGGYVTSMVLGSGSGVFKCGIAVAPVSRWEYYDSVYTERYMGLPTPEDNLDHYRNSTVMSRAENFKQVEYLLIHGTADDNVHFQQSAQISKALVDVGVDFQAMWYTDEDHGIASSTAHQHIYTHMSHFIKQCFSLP

With `OCC1O[C@@H](Oc2ccccc2CF)C(O)C(O)[C@H]1O` (stereo partly shown) [compound 1] the “cleavage by β-Gal” value (β-Gal) was “cleaved”, the survival rate (HEK293 cells) was “did not drop at all” and the survival rate (HEK/lac Z cells; HEK/lac Z cells, 50 μM, after 24 hours) was “did not drop at all”. For the same compound, the “difference in survival rate between high-expression and low-expression cells” value (HEK/lac Z cells; HEK/lac Z vs HEK293, up to 50 μM, 24 hours) was “no significant difference”.
In the case of `COP(=O)(CCC(N)C(=O)O)Oc1cccc(CC(=O)O)c1` (stereo not shown) [GGsTop, reference compound], the “effect of GGT inhibitor on survival rate of cells treated with the GGT prodrug” value ([1]; CCK-8, FIG. 7) is reported as “completely restored the survival rate” and the “effect of inhibitor on the GGT enzymatic reaction of the model compound” value (GGT; inhibitor added at 100 μM) is reported as “inhibited”.
For `N[C@@H](CCC(=O)Nc1ccccc1CF)C(=O)O` [compound 3], the “tumors on the mesentery (macro and fluorescence images)” value (SHIN3 cells) was “Tumors appear to be decreased overall”, the “selective cell damage in coculture (EthD-1 dead cell staining)” value [2] was “selectively damages high-expression cells” and the “changes in cell viability between cells with high and low enzyme expression” value ([1]; SHIN3 (high GGT) vs H226 (low GGT), 1-50 μM, 24 hours, FIG. 7) was “changes in the cell viability were observed”. For the same compound, the cell type selectivity ([1]; SHIN3 vs H226, CCK-8, FIG. 7) was “high cell type selectivity”, the “antitumor activity (CCK-8 assay)” value ([1]; concentration of 25 μM, FIG. 13) was “showed an effect” and the “cell death (EthD-1 dead cell staining)” value [3] was “more cell death occurred in SHIN3 cells”. For the same compound, the “cleavage by GGT” value (GGT; 100 μM compound, 10 U/mL GGT, 37° C., reaction product 2-aminobenzyl alcohol, FIG. 4) was “cleaved” and the “cell death by flow cytometry (EthD-1 dead staining)” value [4] was “selective cell death of SHIN3 cells”.
`NCC(=O)N1CCC[C@H]1C(=O)Nc1ccccc1CF` [compound 2] was tested, and the “cleavage by DPP-IV” value (DPP-IV) was “cleaved” and the “changes in cell viability between cells with high and low enzyme expression” value [5] was “changes in the cell viability were observed”.
